Assay results from US10940139B2, “Compounds that interact with the Ras superfamily for the treatment of cancers, inflammatory diseases, rasopathies, and fibrotic disease” (Shy Therapeutics LLC, priority 2017, dated 2021).

What was measured:
Experiment in all cases: Ras GTP binding domain inhibition assay (labeled GTP)
[1] = biological target: KRas G12C/Q61H double mutant (Homo sapiens (Human), UniProt P01116, G12C/Q61H); settings: 20 μM compound; KRas G12C/Q61H double mutant; read-out: % Inhibition at 20 μM of K-Ras mutant and wild-type protein, KRas G12C Q61H
Procedure, shortened: (§1)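 Inhibition of labeled GTP binding is measured on immobilized His-KRas protein in Tris buffer pH 7.5 with 1 mM MgCl2 and 1 mM DTT.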

[2] = biological target: KRas G12D/Q61H double mutant (Homo sapiens (Human), UniProt P01116, G12D/Q61H); settings: 20 μM compound; KRas G12D/Q61H double mutant; read-out: % Inhibition at 20 μM of K-Ras mutant and wild-type protein, KRas G12D Q61H
Procedure, shortened: as §1

KRas Q61H mutant = KRas Q61H mutant (Homo sapiens (Human), UniProt P01116, Q61H); settings: 20 μM compound; KRas Q61H; read-out: % Inhibition at 20 μM of K-Ras mutant and wild-type protein, KRas Q61H
Procedure, shortened: as §1

KRas G12D/Q61H double mutant, sequence (P01116-2 other isoform, or with tags, fused parts or gaps G12D/Q61H): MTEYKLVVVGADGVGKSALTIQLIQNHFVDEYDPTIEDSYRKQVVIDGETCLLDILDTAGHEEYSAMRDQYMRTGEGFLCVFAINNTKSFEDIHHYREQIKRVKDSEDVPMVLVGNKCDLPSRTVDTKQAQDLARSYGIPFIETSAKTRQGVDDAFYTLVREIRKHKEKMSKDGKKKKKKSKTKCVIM
KRas Q61H mutant, sequence (P01116-2 other isoform, or with tags, fused parts or gaps Q61H): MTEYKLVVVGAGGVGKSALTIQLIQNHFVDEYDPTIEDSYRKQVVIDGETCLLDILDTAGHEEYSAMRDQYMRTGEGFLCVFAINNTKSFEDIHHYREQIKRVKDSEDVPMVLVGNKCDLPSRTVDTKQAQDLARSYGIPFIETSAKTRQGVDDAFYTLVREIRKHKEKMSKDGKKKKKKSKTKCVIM
KRas G12C/Q61H double mutant, sequence (P01116-2 other isoform, or with tags, fused parts or gaps G12C/Q61H): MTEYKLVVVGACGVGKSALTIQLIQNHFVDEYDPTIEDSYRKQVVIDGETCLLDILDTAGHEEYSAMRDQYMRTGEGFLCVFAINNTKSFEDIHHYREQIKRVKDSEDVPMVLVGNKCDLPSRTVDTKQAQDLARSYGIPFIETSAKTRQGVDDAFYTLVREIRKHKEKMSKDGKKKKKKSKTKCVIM

| inhibition at 20 µM [1] | inhibition at 20 µM [2] | inhibition at 20 µM (KRas Q61H mutant) | SMILES |
| --- | --- | --- | --- |
| 25 to 50% | 25 to 50% | 51 to 75% | Oc1nc(-c2ccccn2)nc2c(-c3cnc4ccccc4c3)csc12 [drawing 3462] |
| 1 to 25% | 25 to 50% | 25 to 50% | Oc1nc(-c2ccccn2)nc2c(-c3ccc(Cl)c(Cl)c3)csc12 [drawing 3463] |
| 1 to 25% | 1 to 25% | 1 to 25% | Oc1nc(-c2ccccn2)nc2c(-c3cncc(F)c3)csc12 [drawing 3464] |
| 25 to 50% | 25 to 50% | 25 to 50% | Cc1cncc(-c2csc3c(O)nc(-c4ccccn4)nc23)c1 [drawing 3467] |
| 51 to 75% | 51 to 75% | 51 to 75% | COC(=O)c1c(C)sc2c(O)nc(-c3ccccn3)nc12 [drawing 3473] |
| 25 to 50% | 25 to 50% | 51 to 75% | Cc1c(Br)sc2c(O)nc(-c3ccccn3)nc12 [drawing 3474] |
| 51 to 75% | 25 to 50% | 51 to 75% | COC(=O)c1sc2c(O)nc(-c3ccccn3)nc2c1C [drawing 3476] |
| 0% | 1 to 25% | 1 to 25% | COc1nc(-c2ccccn2)nc2c(C3CCCCC3)csc12 [drawing 3479] |
| 25 to 50% | 25 to 50% | 25 to 50% | Cc1sc2c(O)nc(-c3ccccn3)nc2c1C(=O)O [drawing 3482] |
| 25 to 50% | 25 to 50% | 25 to 50% | Cc1sc2nc(-c3ccccn3)nc(N)c2c1Br [drawing 3484] |
| 25 to 50% | 51 to 75% | 25 to 50% | COC(=O)c1c(C)sc2nc(-c3ccccn3)nc(N)c12 [drawing 3485] |
| 51 to 75% | 51 to 75% | 51 to 75% | Oc1nc(-c2ccccn2)nc2c(CC3CCNCC3)csc12 [drawing 3486] |
| 51 to 75% | 25 to 50% | 51 to 75% | Oc1nc(-c2ccccn2)nc2c(CC3CCCNC3)csc12 (stereo not drawn) [drawing 3488] |
| 0% | 1 to 25% | 0% | COc1nc(-c2ccccn2)nc2c(C3CC3)csc12 [drawing 3489] |
| 51 to 75% | 51 to 75% | 76 to 100% | COC(=O)c1c(C)sc2c(N)nc(-c3ccccn3)nc12 [drawing 3499] |
| 25 to 50% | 25 to 50% | 51 to 75% | O=C(NCCc1ccncn1)c1csc2nc(-c3ccccn3)nc(N3CCOCC3)c12 [drawing 3500] |
| 1 to 25% | 1 to 25% | 25 to 50% | N#Cc1cccc(-c2csc3c(O)nc(-c4ccccn4)nc23)c1 [drawing 3503] |
| 1 to 25% | 1 to 25% | 25 to 50% | Oc1nc(-c2ccccn2)nc2c(-c3cncnc3)csc12 [drawing 3504] |
| 51 to 75% | 51 to 75% | 76 to 100% | Cc1c(-c2csc3c(O)nc(-c4ccccn4)nc23)cnn1C [drawing 3505] |
| 1 to 25% | 1 to 25% | 1 to 25% | Oc1nc(-c2ccccn2)nc2c(-c3cncc(C(F)F)c3)csc12 [drawing 3507] |
| 51 to 75% | 25 to 50% | 51 to 75% | Cc1sc2c(O)nc(-c3ccccn3)nc2c1C(=O)N1CCN(c2ccccc2)CC1 [drawing 3508] |
| 51 to 75% | 25 to 50% | 51 to 75% | Oc1nc(-c2ccccn2)nc2c(CC3CNC3)csc12 [drawing 3519] |

| inhibition at 20 µM [1] | inhibition at 20 µM [2] | inhibition at 20 µM (KRas Q61H mutant) | SMILES |
| --- | --- | --- | --- |
| 25 to 50% | 1 to 25% | 0% | COc1cnc(CNC(=O)c2csc3c(O)nc(-c4ccccn4)nc23)[nH]c1=O [drawing 3520] |
| 51 to 75% | 25 to 50% | 51 to 75% | COc1cnc(CNC(=O)c2cc3nc(-c4ccccn4)nc(O)c3s2)[nH]c1=O [drawing 3521] |
| 25 to 50% | 25 to 50% | 1 to 25% | Cc1sc2c(O)nc(-c3ccccn3)nc2c1Br [drawing 3522] |
| 1 to 25% | 0% | 0% | COc1cnc(CNC(=O)c2c(C)sc3c(O)nc(-c4ccccn4)nc23)[nH]c1=O [drawing 3523] |
| 25 to 50% | 1 to 25% | 0% | COc1cnc(CNC(=O)c2sc3c(O)nc(-c4ccccn4)nc3c2C)[nH]c1=O [drawing 3524] |
| 51 to 75% | 25 to 50% | 51 to 75% | O=C(c1csc2c(O)nc(-c3ccccn3)nc12)N1CCNC(c2ccc(Cl)cc2)C1 (stereo not drawn) [drawing 3525] |
| 1 to 25% | 1 to 25% | 1 to 25% | Cn1cnc(-c2nc(O)c3c(-c4ccccc4)c(-c4ccncc4)sc3n2)c1 [drawing 3528] |
| 1 to 25% | 1 to 25% | 1 to 25% | COCCNc1nc(-c2ccccn2)nc(-c2cccc(OCCN(C)C)c2)c1Oc1ccccc1 [drawing 3529] |
| 1 to 25% | 1 to 25% | 1 to 25% | OCC1(c2ccc(-c3nc(-c4ccccn4)nc(-c4ccc(C5(CO)CC5)cc4)c3Oc3ccccc3)cc2)CC1 [drawing 3532] |
| 1 to 25% | 1 to 25% | 1 to 25% | Cn1ccnc1-c1nc(O)c2c(-c3ccccc3)c(-c3ccccc3)sc2n1 [drawing 3536] |
| 1 to 25% | 1 to 25% | 1 to 25% | Cn1cnc(-c2nc(O)c3c(-c4ccccc4)c(-c4ccc(CNC(=O)OC(C)(C)C)cc4)sc3n2)c1 [drawing 3537] |
| 1 to 25% | 1 to 25% | 0% | Nc1nc(O)c2sc(-c3cccc(C(=O)NC4CCNC4=O)c3)cc2n1 (stereo not drawn) [drawing 3542] |
| 1 to 25% | 1 to 25% | 1 to 25% | Nc1nc(O)c2sc(-c3cccc(C(=O)N4CCC(O)C4)c3)cc2n1 (stereo not drawn) [drawing 3543] |
| 1 to 25% | 0% | 1 to 25% | NC(=O)C1CCCN1C(=O)c1cccc(-c2cc3nc(N)nc(O)c3s2)c1 (stereo not drawn) [drawing 3544] |
| 1 to 25% | 0% | 0% | Nc1nc(O)c2sc(-c3cccc(C(=O)NCc4ncc[nH]4)c3)cc2n1 [drawing 3545] |
| 1 to 25% | 0% | 0% | Nc1nc(O)c2sc(-c3cccc(C(=O)NCc4cccc(O)n4)c3)cc2n1 [drawing 3546] |
| 76 to 100% | 51 to 75% | 51 to 75% | COC(=O)c1nc(-c2ccccn2)nc(O)c1O [drawing 3547] |
| 0% | 0% | 51 to 75% | Oc1nc(-c2ccccn2)nc2c(-c3ccccc3)c(-c3ccncc3)sc12 [drawing 3548] |
| 1 to 25% | 0% | 1 to 25% | Cn1cnc(-c2nc(O)c3sc(-c4ccncc4)c(-c4ccccc4)c3n2)c1 [drawing 3549] |
| 1 to 25% | 1 to 25% | 1 to 25% | COCC(C)Nc1nc(-c2ccccn2)nc(C(=O)NCCCc2c[nH]cn2)c1Oc1ccccc1 (stereo not drawn) [drawing 3550] |
| 1 to 25% | 25 to 50% | 25 to 50% | Nc1nc(-c2ccccn2)nc(C(=O)NCCc2ccncc2)c1Oc1ccccc1 [drawing 3551] |

| SMILES | inhibition at 20 µM [1] | inhibition at 20 µM [2] | inhibition at 20 µM (KRas Q61H mutant) |
| --- | --- | --- | --- |
| Oc1nc(-c2ccccn2)nc2c(-c3cc(C(F)(F)F)ccc3F)csc12 [drawing 3465] | 1 to 25% | 1 to 25% | 1 to 25% |
| Oc1nc(-c2ccccn2)nc2c(-c3cncc(C(F)(F)F)c3)csc12 [drawing 3466] | 0% | 1 to 25% | 1 to 25% |
| Cc1cc2nc(-c3ccccn3)nc(O)c2s1 [drawing 3472] | 51 to 75% | 51 to 75% | 51 to 75% |
| Oc1nc(-c2ccccn2)nc2c3c(sc12)CNC3 [drawing 3477] | 76 to 100% | 51 to 75% | 76 to 100% |
| Cc1c(C(=O)N2CCN(c3ccccc3)CC2)sc2c(O)nc(-c3ccccn3)nc12 [drawing 3483] | 51 to 75% | 51 to 75% | 51 to 75% |
| COc1cnc(C2(N)CCCC2)nc1O [drawing 3490] | 1 to 25% | 1 to 25% | 0% |
| COc1cnc(C(C)(C)N)nc1O [drawing 3491] | 1 to 25% | 1 to 25% | 0% |
| CC(C)c1nn(C)cc1-c1csc2c(O)nc(-c3ccccn3)nc12 [drawing 3501] | 51 to 75% | 51 to 75% | 51 to 75% |
| Oc1nc(-c2ccccn2)nc2c(C3CCCCC3)csc12 [drawing 3511] | 25 to 50% | 25 to 50% | 51 to 75% |
